Data set [1] relates to T1, L-asparaginase from Streptomyces brollosae NEAE-115.
T1 construct: gene L-asparagine amidohydrolase
As to conditions: 0.05 M Tris-HCl, pH 8.6, 37 °C (standard assay); 1-10 mM substrate.

Substrate in the data set “purified protein”: NC(=O)C[C@H](N)C(=O)O
In words: purified protein. Conditions: 0.05 M Tris-HCl, pH 8.6, 37 °C (standard assay), 1-10 mM substrate.

In general, Km refers to the concentration of substrate that gives half-maximal velocity.

On to `NC(=O)C[C@H](N)C(=O)O` [L-asparagine], for which, in data set [1], the Km was 2140 µM.

B1: commercially available L-asparaginase from E. coli (Escherichia coli K-12) (protein)
chain: LPNITILATGGTIAGGGDSATKSNYTVGKVGVENLVNAVPQLKDIANVKGEQVVNIGSQDMNDNVWLTLAKKINTDCDKTDGFVITHGTDTMEETAYFLDLTVKCDKPVVMVGAMRPSTSMSADGPFNLYNAVVTAADKASANRGVLVVMNDTVLDGRDVTKTNTTDVATFKSVNYGPLGYIHNGKIDYQRTPARKHTSDTPFDVSKLNELPKVGIVYNYANASDLPAKALVDAGYDGIVSAGVGNGNLYKSVFDTLATAAKTGTAVVRSSRVPTGATTQDAEVDDAKYGFVASGTLNPQKARVLLQLALTQTKDPQQIQQIFNQY
With B1, in the data set “purified protein”, the Michaelis-Menten constant (Km) is 176 µM.
